± gives the standard deviation of the averaged measurements.
Test system: MES-SA
Assay: relative viability vs DMSO control (72 h) (fraction); higher = more viable cells
Summary of the method: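 Percent growth from ATPLite readings, averaged over up to triplicate wells, was used as relative viability. Sarcoma cell lines were seeded into 384-well plates for 80–90% confluence, dosed after 24 h, and kept 72 h at 37 °C, 5% CO2. Data were rescaled to a range where 1 is full and 0 is none.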

Row | Compound | relative viability (0.00017 µM) | relative viability (0.00051 µM) | relative viability (0.00152 µM) | relative viability (0.00457 µM) | relative viability (0.01372 µM) | relative viability (0.04115 µM) | relative viability (0.1235 µM) | relative viability (0.3704 µM) | relative viability (1.111 µM) | relative viability (3.333 µM) | relative viability (10 µM) | relative viability (2 pM) | relative viability (5 pM) | relative viability (15 pM) | relative viability (50 pM) | relative viability (0.00014 µM) | relative viability (0.00041 µM) | relative viability (0.0012 µM) | relative viability (0.0037 µM) | relative viability (0.011 µM) | relative viability (200 fM) | relative viability (600 fM)
1 | CC(C)NC(=O)C1CCC(n2c(NC(=O)c3ccc(F)cc3)nc3ccc(CN4CCC(C(C)(C)O)CC4)cc32)CC1 (stereo not drawn) [Belizatinib] | 0.942 ± 0.023 | 0.92 ± 0.026 | 0.934 ± 0.012 | 0.957 ± 0.023 | 0.932 ± 0.018 | 0.9451 ± 0.0052 | 0.9316 ± 0.0039 | 0.934 ± 0.037 | 0.824 ± 0.022 | 0.523 ± 0.024 | 0.148 ± 0.016 | – | – | – | – | – | – | – | – | – | – | –
2 | C=CC(=O)N1CCC[C@@H](n2nc(-c3ccc(Oc4ccccc4)cc3)c3c(N)ncnc32)C1 [Ibrutinib] | 1 ± 0.018 | 0.977 ± 0.021 | 0.955 ± 0.041 | 0.947 ± 0.029 | 0.966 ± 0.026 | 0.964 ± 0.026 | 0.931 ± 0.03 | 0.864 ± 0.011 | 0.866 ± 0.045 | 0.88 ± 0.022 | 0.6991 ± 0.0047 | – | – | – | – | – | – | – | – | – | – | –
3 | O=C(Cc1ccc(-c2ccc(OCCN3CCOCC3)cc2)cn1)NCc1ccccc1 [KX2-391] | 0.988 ± 0.041 | 0.976 ± 0.018 | 0.946 ± 0.018 | 0.949 ± 0.026 | 0.9439 ± 0.0022 | 0.448 ± 0.042 | 0.2711 ± 0.0024 | 0.179 ± 0.0046 | 0.143 ± 0.0031 | 0.133 ± 0.004 | 0.13 ± 0.0027 | – | – | – | – | – | – | – | – | – | – | –
4 | CC(=O)Nc1cccc(-n2c(=O)n(C3CC3)c(=O)c3c(Nc4ccc(I)cc4F)n(C)c(=O)c(C)c32)c1 [Trametinib] | 0.968 ± 0.022 | 0.965 ± 0.012 | 0.929 ± 0.017 | 0.873 ± 0.029 | 0.831 ± 0.015 | 0.78 ± 0.011 | 0.76 ± 0.015 | 0.736 ± 0.034 | 0.683 ± 0.032 | 0.701 ± 0.017 | 0.6906 ± 0.006 | – | – | – | – | – | – | – | – | – | – | –
5 | COc1cc2nccc(Oc3ccc(NC(=O)Nc4cc(C)on4)c(Cl)c3)c2cc1OC [Tivozanib] | 0.914 ± 0.018 | 0.926 ± 0.051 | 0.925 ± 0.036 | 0.932 ± 0.035 | 0.94 ± 0.0096 | 0.944 ± 0.035 | 0.923 ± 0.013 | 0.955 ± 0.025 | 0.977 ± 0.021 | 0.697 ± 0.041 | 0.231 ± 0.0086 | – | – | – | – | – | – | – | – | – | – | –
6 | COc1cc2c(cc1O)CCN[C@]21CS[C@@H]2c3c(OC(C)=O)c(C)c4c(c3[C@H](COC1=O)N1[C@@H]2[C@H]2c3c(cc(C)c(OC)c3O)C[C@@H]([C@@H]1O)N2C)OCO4 [Trabectedin] | – | – | – | – | – | – | – | – | – | – | – | 0.939 ± 0.021 | 0.903 ± 0.022 | 0.886 ± 0.036 | 0.819 ± 0.039 | 0.667 ± 0.049 | 0.471 ± 0.025 | 0.0389 ± 0.024 | 0.0573 ± 0.00061 | 0.0496 ± 0.003 | 0.997 ± 0.015 | 0.963 ± 0.015
7 | CNC(=O)c1cc(Oc2ccc(NC(=O)Nc3ccc(Cl)c(C(F)(F)F)c3)c(F)c2)ccn1 [Regorafenib] | 0.973 ± 0.026 | 0.9876 ± 0.0026 | 0.972 ± 0.037 | 0.955 ± 0.036 | 0.968 ± 0.022 | 0.96 ± 0.03 | 0.997 ± 0.067 | 0.965 ± 0.045 | 0.923 ± 0.064 | 0.735 ± 0.038 | 0.246 ± 0.01 | – | – | – | – | – | – | – | – | – | – | –
8 | C[C@@H]1CCN(C(=O)CC#N)C[C@@H]1N(C)c1ncnc2[nH]ccc12 [Tofacitinib] | 0.985 ± 0.035 | 0.955 ± 0.064 | 0.96 ± 0.043 | 0.963 ± 0.05 | 0.966 ± 0.033 | 0.976 ± 0.025 | 0.974 ± 0.031 | 0.953 ± 0.028 | 0.952 ± 0.056 | 0.927 ± 0.042 | 0.873 ± 0.049 | – | – | – | – | – | – | – | – | – | – | –
9 | COc1cc2c(Oc3ccc4[nH]c(C)cc4c3F)ncnc2cc1OCCCN1CCCC1 [Cediranib] | 0.944 ± 0.036 | 0.934 ± 0.065 | 0.949 ± 0.041 | 0.929 ± 0.037 | 0.967 ± 0.012 | 0.95 ± 0.02 | 0.9503 ± 0.0085 | 0.966 ± 0.029 | 0.774 ± 0.037 | 0.619 ± 0.02 | 0.257 ± 0.023 | – | – | – | – | – | – | – | – | – | – | –
10 | CC[C@H](Nc1ncnc2[nH]cnc12)c1nc2cccc(F)c2c(=O)n1-c1ccccc1 [Idelalisib] | 1.01 ± 0.021 | 1 ± 0.034 | 0.993 ± 0.03 | 0.964 ± 0.015 | 0.971 ± 0.038 | 0.972 ± 0.036 | 0.986 ± 0.022 | 0.937 ± 0.016 | 0.889 ± 0.031 | 0.867 ± 0.029 | 0.711 ± 0.023 | – | – | – | – | – | – | – | – | – | – | –
11 | Cc1cc(Nc2ncnc3ccc(NC4=NC(C)(C)CO4)cc23)ccc1Oc1ccn2ncnc2c1 [Tucatinib] | 0.988 ± 0.052 | 0.9678 ± 0.005 | 0.961 ± 0.03 | 0.95 ± 0.022 | 0.948 ± 0.031 | 0.939 ± 0.035 | 0.916 ± 0.013 | 0.89 ± 0.049 | 0.857 ± 0.0086 | 0.796 ± 0.02 | 0.515 ± 0.042 | – | – | – | – | – | – | – | – | – | – | –
12 | Cn1cc(-c2cc3c(N4CCN(c5ncc([C@@](C)(N)c6ccc(F)cc6)cn5)CC4)ncnn3c2)cn1 [Avapritinib] | 0.882 ± 0.024 | 0.867 ± 0.036 | 0.8778 ± 0.0081 | 0.884 ± 0.016 | 0.91 ± 0.016 | 0.902 ± 0.038 | 0.898 ± 0.02 | 0.884 ± 0.018 | 0.795 ± 0.014 | 0.624 ± 0.02 | 0.51 ± 0.011 | – | – | – | – | – | – | – | – | – | – | –
13 | CC(C)(C)c1cc(NC(=O)Nc2ccc(-c3cn4c(n3)sc3cc(OCCN5CCOCC5)ccc34)cc2)no1 [Quizartinib] | 0.944 ± 0.012 | 0.974 ± 0.019 | 0.94 ± 0.015 | 0.935 ± 0.046 | 0.937 ± 0.023 | 0.931 ± 0.016 | 0.953 ± 0.025 | 0.933 ± 0.031 | 0.823 ± 0.017 | 0.602 ± 0.041 | 0.577 ± 0.025 | – | – | – | – | – | – | – | – | – | – | –
14 | O=C(Nc1cnn2ccc(N3CCC[C@@H]3c3cc(F)ccc3F)nc12)N1CC[C@H](O)C1 [Larotrectinib] | 0.929 ± 0.024 | 0.932 ± 0.046 | 0.923 ± 0.054 | 0.896 ± 0.056 | 0.931 ± 0.022 | 0.929 ± 0.039 | 0.894 ± 0.073 | 0.897 ± 0.022 | 0.916 ± 0.027 | 0.893 ± 0.048 | 0.877 ± 0.015 | – | – | – | – | – | – | – | – | – | – | –
15 | Cc1nc(-c2cn3c(n2)-c2ccc(-c4cnn(C(C)(C)C(N)=O)c4)cc2OCC3)n(C(C)C)n1 [Taselisib] | 0.901 ± 0.028 | 0.9023 ± 0.004 | 0.887 ± 0.033 | 0.858 ± 0.021 | 0.797 ± 0.035 | 0.692 ± 0.01 | 0.504 ± 0.015 | 0.386 ± 0.014 | 0.299 ± 0.0098 | 0.214 ± 0.0027 | 0.146 ± 0.0072 | – | – | – | – | – | – | – | – | – | – | –
16 | Cc1nc(NC(=O)N2CCC[C@H]2C(N)=O)sc1-c1ccnc(C(C)(C)C(F)(F)F)c1 [Alpelisib] | 0.884 ± 0.046 | 0.909 ± 0.053 | 0.901 ± 0.01 | 0.88 ± 0.052 | 0.879 ± 0.033 | 0.843 ± 0.034 | 0.774 ± 0.014 | 0.64 ± 0.016 | 0.526 ± 0.019 | 0.43 ± 0.015 | 0.323 ± 0.0056 | – | – | – | – | – | – | – | – | – | – | –
17 | Cn1cnc2c(F)c(Nc3ccc(Br)cc3F)c(C(=O)NOCCO)cc21 [Binimetinib] | 0.927 ± 0.027 | 0.9232 ± 0.0083 | 0.927 ± 0.017 | 0.894 ± 0.042 | 0.892 ± 0.024 | 0.84 ± 0.025 | 0.793 ± 0.02 | 0.7569 ± 0.0022 | 0.782 ± 0.025 | 0.741 ± 0.037 | 0.735 ± 0.059 | – | – | – | – | – | – | – | – | – | – | –
18 | CCc1cc2c(cc1N1CCC(N3CCOCC3)CC1)C(C)(C)c1[nH]c3cc(C#N)ccc3c1C2=O [Alectinib] | 0.896 ± 0.018 | 0.91 ± 0.026 | 0.895 ± 0.045 | 0.893 ± 0.036 | 0.889 ± 0.068 | 0.944 ± 0.035 | 0.953 ± 0.035 | 0.9459 ± 0.0094 | 0.942 ± 0.018 | 0.968 ± 0.049 | 0.959 ± 0.035 | – | – | – | – | – | – | – | – | – | – | –
